# Experimental data reported in patent publication US11242345B2, “Sulfonimidoylpurinone compounds and methods of treatment using the same” (Hoffmann-La Roche Inc., priority 2015, dated 2022).
# Like-named read-outs stand apart in the source and are kept apart here.
# Columns and labels:
# human TLR7 = human TLR7 (Homo sapiens (Human), UniProt Q9NYK1); test: HEK-Blue-hTLR7 cells assay (SEAP reporter); format: cell-based; conditions: 20 hrs
# Method: A stable HEK-Blue-hTLR7 cell line was purchased from InvivoGen (Cat. #: hkb-htlr7, San Diego, Calif., USA). These cells were designed for studying the stimulation of human TLR7 by monitoring the activation of NF-κB. […] Therefore the reporter expression was regulated by the NF-κB promoter upon stimulation of human TLR7 for 20 hrs. The cell culture supernatant SEAP reporter activity was determined using QUANTI-Blue™ kit (Cat. #: rep-qbl, Invivogen, San Diego, Ca, USA) at a wavelength of 640 nm, a detection medium that turns purple or blue in the presence of alkaline phosphatase.
# HEK-Blue-hTLR7 cells were incubated at a density of 250,000-450,000 cells/mL in a volume of 180 μL in a 96-well plate in Dulbecco's Modified Eagle's medium (DMEM) containing 4.5 g/L glucose, 50 U/mL penicillin, […], […], 2 mM L-glutamine, 10% (V/V) heat-inactivated fetal bovine serum for 24 hrs. Then the HEK-Blue-hTLR-7 cells were incubated with addition of 20 μL test compound in a serial dilution in the presence of final DMSO at 1% and perform incubation under 37° C. in a CO2 incubator for 20 hrs. Then 20 μL of the supernatant from each well was incubated with […] Quanti-blue substrate solution at 37° C. for 2 hrs and the absorbance was read at 620-655 nm using a spectrophotometer. The signalling pathway that TLR7 activation leads to downstream NF-κB activation has been widely accepted, and therefore similar reporter assay was also widely used for evaluating TLR7 agonist (Tsuneyasu Kaisho and Takashi Tanaka, Trends in Immunology, Volume 29, Issue 7, July 2008, […]; Hiroaki Hemmi et al, Nature Immunology 3, 196-200 (2002)).
# CYP3A4 = test: Cytochrome P450 induction screening assay, mRNA induction in human cryopreserved hepatocytes; format: in vitro ADME; conditions: 24 hours
# Description: Induction of cytochrome P450 enzymes is associated with an increased prevalence of clinical drug-drug interactions. The clinical consequences of induction may be therapeutic failure caused by a decreased systemic exposure of the drug itself or a co-administered therapy, or toxicity as a result of increased bioactivation. Cytochrome P450 (CYP450) induction assay has been used to understand the potential drug-drug interaction liabilities in drug discovery stage. Human cryopreserved hepatocytes (Life Technologies, Carlsbad, USA) were thawed and cultured in collagen I coated 96-well plates with a density of 52,000 cells/well. After attachment, hepatocyte maintenance medium (HMM; Lonza, Switzerland) was changed after cells were pre-cultured overnight. […] Medium change was then performed and cells were exposed for 24 hours to test compounds, positive inducer compounds, or vehicle (0.1% DMSO), respectively. At the end of the compound exposure period, medium was removed and cells lysed using 100 μL/well MagNA Pure LC RNA isolation tissue lysis buffer (Roche Diagnostics AG, Rotkreuz, Switzerland). […] mRNA isolation was performed using the MagNA Pure 96 system (Roche Diagnostics AG, Rotkreuz, Switzerland) and the respective cellular RNA large volume kit (Roche Diagnostics AG, Rotkreuz, Switzerland) from thawed samples diluted 1:1 with PBS. […] The resulting cDNA was diluted with 40 μL of H2O before using for qRT-PCR. qRT-PCR was performed by using the forward and the reverse primer, the corresponding Universal Probe Library (all from Microsynth, Balgach, Switzerland) and the Taqman Fast advanced master mix (Applied Biosystems), on an ABI 7900 machine (Applied Biosystems). qRT-PCR Ct-values for the respective P450s were put into relation to the Ct-value of RN18S1 (microsynth, Balgach, Switzerland) of the same sample. Doing so, a respective Δct-value was calculated. Using the average of all Δct-values for the vehicle control samples, a ΔΔct-value was calculated for each sample (ΔΔct-value(sample)=Δct-value(sample)−average of Δct-value of all vehicle controls). […] The individual fold induction values were then averaged per treatment condition (usually n=3 biological replicates). […] Relative induction (%)=100×(T−V)/(P−V) • T: fold induction of test compound condition • P: fold induction of positive inducer compound • V: fold induction of vehicle controls Results of CYP3A4 induction are given in Table 5.
# hERG channel = hERG channel (Homo sapiens (Human), UniProt Q12809); test: hERG channel inhibition assay (patch-clamp, CHOhERG cells); format: cell-based; conditions: for IC20: human, CHO cells stably expressing hERG
# hERG channel, sequence (Q12809 whole entry): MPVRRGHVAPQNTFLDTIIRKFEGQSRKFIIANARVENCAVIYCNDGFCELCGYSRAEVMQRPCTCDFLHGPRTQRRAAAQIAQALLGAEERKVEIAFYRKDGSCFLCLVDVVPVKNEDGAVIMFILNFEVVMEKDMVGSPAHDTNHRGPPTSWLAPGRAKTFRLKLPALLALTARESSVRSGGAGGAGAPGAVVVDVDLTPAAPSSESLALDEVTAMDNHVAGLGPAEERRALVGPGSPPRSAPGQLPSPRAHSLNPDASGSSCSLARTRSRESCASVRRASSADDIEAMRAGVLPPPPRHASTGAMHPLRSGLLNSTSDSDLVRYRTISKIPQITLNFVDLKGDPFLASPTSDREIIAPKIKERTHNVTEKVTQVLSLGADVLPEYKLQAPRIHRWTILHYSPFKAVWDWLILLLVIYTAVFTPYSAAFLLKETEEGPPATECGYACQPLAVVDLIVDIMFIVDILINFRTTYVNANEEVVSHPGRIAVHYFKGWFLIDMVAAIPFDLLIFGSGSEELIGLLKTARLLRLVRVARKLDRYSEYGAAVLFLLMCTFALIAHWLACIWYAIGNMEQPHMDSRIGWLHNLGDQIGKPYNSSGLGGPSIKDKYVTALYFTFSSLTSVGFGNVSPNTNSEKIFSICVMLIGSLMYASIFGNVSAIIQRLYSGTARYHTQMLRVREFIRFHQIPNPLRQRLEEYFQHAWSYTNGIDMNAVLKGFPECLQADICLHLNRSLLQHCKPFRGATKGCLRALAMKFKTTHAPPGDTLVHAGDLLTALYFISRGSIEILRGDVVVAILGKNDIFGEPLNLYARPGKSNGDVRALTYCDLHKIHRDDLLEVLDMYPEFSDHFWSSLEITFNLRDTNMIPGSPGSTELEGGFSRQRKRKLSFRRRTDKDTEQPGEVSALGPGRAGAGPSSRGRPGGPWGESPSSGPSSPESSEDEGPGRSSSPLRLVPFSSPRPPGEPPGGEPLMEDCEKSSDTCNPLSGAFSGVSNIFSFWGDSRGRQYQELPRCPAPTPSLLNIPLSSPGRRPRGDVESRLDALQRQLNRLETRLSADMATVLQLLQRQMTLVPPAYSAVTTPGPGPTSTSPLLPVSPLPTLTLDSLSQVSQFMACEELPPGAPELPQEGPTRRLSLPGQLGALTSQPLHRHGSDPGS
# Method: The hERG K^+ channels were cloned in humans and stably expressed in a CHO (Chinese hamster ovary) cell line. CHOhERG cells were used for patch-clamp (voltage-clamp, whole-cell) experiments. Cells were stimulated by a voltage pattern to activate hERG channels and conduct IKhERG currents (rapid delayed outward rectifier potassium current of the hERG channel). […] Thereafter, the test compound was added to the preparation at increasing concentrations. For each concentration, an attempt was made to reach a steady-state effect, usually, this was achieved within 3-10 min at which time the next highest concentration was applied. The amplitude and kinetics of IKhERG are recorded in each concentration of the drug which were compared to the control values (taken as 100%). (references: Redfern W S, Carlsson L, Davis A S, Lynch W G, MacKenzie I, Palethorpe S, Siegl P K, Strang I, Sullivan A T, Wallis R, Camm A J, Hammond T G. 2003; Relationships between preclinical cardiac electrophysiology, clinical QT interval prolongation and torsade de pointes for a broad range of drugs: evidence for a provisional safety margin in drug development. Cardiovasc. Res. 58:32-45, Sanguinetti M C, Tristani-Firouzi M. 2006; hERG potassium channels and cardiac arrhythmia. Nature 440:463-469, Webster R, Leishman D, Walker D. 2002; Towards a drug concentration effect relationship for QT prolongation and torsades de pointes. Curr. Opin. Drug Discov. Devel. 5:116-26).
# [1] = Single dose PK after 1 mg/kg intravenous dosing to rat; format: in vivo, Male Wister-Han Rats; conditions: IV 1 mpk
# Method: The single dose PK in Male Wister-Han Rats was performed to assess pharmacokinetic properties of tested compounds. Two groups of animals were dosed via bolus intravenous (IV) of the respective compound. Blood samples (approximately 20 μL) were collected via Jugular vein or an alternate site at 5 min, 15 min, 30 min, 1 hr, 2 hr, 4 hr, 7 hr and 24 hr post-dose for IV group. Blood samples were placed into tubes containing EDTA-K2 anticoagulant and centrifuged at 5000 rpm for 6 min at 4° C. to separate plasma from the samples. Following centrifugation, the resulting plasma was transferred to clean tubes for bioanalysis on LC/MS/MS. The pharmacokinetic parameters were calculated using non-compartmental module of WinNonlin® Professional 6.2. […] Therefore, compounds of present invention potentially could lead to less dose frequency and lower dose in clinical application.
# human TLR8 = human TLR8 (Homo sapiens (Human), UniProt Q9NR97); test: HEK-Blue-hTLR8 cells assay (SEAP reporter) and selectivity index; format: cell-based; conditions: 20 hrs, read-out: HEK Blue hTLR-8 EC50
# human TLR8, sequence (Q9NR97 27-1041): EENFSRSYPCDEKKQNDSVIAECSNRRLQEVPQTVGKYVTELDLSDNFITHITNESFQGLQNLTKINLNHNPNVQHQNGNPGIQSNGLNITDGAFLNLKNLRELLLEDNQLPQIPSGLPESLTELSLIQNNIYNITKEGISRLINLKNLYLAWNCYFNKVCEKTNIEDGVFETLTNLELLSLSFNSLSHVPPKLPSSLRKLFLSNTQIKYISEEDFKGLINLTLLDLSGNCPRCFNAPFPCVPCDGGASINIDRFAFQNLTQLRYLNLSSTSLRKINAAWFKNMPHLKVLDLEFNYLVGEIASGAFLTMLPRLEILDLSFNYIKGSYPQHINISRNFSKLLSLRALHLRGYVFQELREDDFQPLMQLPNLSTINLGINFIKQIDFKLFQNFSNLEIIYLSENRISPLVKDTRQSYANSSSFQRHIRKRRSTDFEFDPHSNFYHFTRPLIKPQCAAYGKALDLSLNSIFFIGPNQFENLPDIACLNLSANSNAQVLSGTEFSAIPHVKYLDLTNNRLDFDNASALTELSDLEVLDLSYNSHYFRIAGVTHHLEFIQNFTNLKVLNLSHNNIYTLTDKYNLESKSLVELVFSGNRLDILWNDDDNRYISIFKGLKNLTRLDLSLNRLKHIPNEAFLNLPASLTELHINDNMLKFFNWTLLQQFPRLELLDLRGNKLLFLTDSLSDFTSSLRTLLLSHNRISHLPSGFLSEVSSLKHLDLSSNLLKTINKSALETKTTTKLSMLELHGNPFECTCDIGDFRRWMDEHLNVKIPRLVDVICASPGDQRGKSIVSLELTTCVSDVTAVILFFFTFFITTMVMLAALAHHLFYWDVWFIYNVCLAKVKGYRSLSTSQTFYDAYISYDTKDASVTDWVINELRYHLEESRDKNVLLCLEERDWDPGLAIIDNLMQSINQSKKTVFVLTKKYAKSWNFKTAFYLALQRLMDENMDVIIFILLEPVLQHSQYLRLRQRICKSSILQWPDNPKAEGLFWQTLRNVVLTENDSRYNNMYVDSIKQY
# Method: These cells were designed for studying the stimulation of human TLR8 by monitoring the activation of NF-κB. […] Therefore the reporter expression was regulated by the NF-κB promoter upon stimulation of human TLR8 for 20 hrs.
# Then the HEK-Blue-hTLR8 cells were incubated with addition of 20 μL test compound in a serial dilution in the presence of final DMSO at 1% and perform incubation under 37° C. in a CO2 incubator for 20 hrs. […] The signalling pathway that TLR8 activation leads to downstream NF-κB activation has been widely accepted, and therefore similar reporter assay was also widely used for evaluating TLR8 agonist (Tsuneyasu Kaisho and Takashi Tanaka, Trends in Immunology, Volume 29, Issue 7, July 2008, […]; Hiroaki Hemmi et al, Nature Immunology 3, 196-200 (2002)).
# [2] = tested on: patients with chronic hepatitis B; conditions: phase Ib; cited from earlier work
# [3] = rat, IV 1 mpk; data from WO2016023511; cited from earlier work
# [4] = read-out: HEK-Blue-hTLR7 (EC50 (μM))
# [5] = male, Wister-Han, plasma, iv, 1 mg/kg
# human TLR7, sequence (Q9NYK1 27-1049): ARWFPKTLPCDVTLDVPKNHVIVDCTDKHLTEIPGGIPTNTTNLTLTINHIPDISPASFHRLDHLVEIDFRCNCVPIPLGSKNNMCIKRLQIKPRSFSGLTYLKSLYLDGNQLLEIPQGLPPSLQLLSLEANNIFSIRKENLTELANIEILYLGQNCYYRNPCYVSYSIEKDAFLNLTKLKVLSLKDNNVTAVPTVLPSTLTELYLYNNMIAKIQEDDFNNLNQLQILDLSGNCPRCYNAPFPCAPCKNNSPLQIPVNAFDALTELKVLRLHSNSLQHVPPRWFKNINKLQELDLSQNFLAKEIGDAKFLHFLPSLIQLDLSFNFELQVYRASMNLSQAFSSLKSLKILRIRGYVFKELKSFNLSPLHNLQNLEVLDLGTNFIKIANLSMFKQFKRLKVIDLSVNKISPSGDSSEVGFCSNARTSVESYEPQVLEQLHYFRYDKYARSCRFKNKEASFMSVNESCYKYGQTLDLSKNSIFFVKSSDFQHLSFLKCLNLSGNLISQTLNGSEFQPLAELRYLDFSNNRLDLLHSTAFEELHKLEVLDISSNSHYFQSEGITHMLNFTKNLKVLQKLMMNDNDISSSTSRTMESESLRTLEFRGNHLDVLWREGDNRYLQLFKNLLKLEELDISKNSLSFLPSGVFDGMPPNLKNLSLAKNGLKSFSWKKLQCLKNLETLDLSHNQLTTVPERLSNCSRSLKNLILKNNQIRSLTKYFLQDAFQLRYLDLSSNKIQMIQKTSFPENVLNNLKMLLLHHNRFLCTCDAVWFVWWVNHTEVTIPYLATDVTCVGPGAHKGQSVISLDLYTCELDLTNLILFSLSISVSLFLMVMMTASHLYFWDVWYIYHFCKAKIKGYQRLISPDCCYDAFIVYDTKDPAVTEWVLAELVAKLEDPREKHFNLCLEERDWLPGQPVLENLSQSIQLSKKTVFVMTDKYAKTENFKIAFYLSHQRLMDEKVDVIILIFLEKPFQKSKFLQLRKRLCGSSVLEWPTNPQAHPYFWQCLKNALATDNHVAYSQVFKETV
structure (smiles),measurement,setting,value
"CCCS(=N)(=O)c1nc(N)c2[nH]c(=O)n(Cc3ccccc3)c2n1 (single isomer, unassigned) [Example 4-B, 6-Amino-9-benzyl-2-(propylsulfonimidoyl)-7H-purin-8-one]",EC50,human TLR7; HEK-Blue-hTLR7 (EC50 (μM)),0.086 µM
same,Relative induction of Positive control (10 μM Rifampicin) (%),CYP3A4,−0.90%
"CS(=N)(=O)c1nc(N)c2[nH]c(=O)n(Cc3ccccc3)c2n1 (single isomer, unassigned) [Example 1-B, 6-Amino-9-benzyl-2-(methylsulfonimidoyl)-7H-purin-8-one]",EC50,human TLR7; [4],0.18 µM
same,IC50,hERG channel,> 20 µM
same,IC20,hERG channel,> 10 µM
"CCS(=N)(=O)c1nc(N)c2[nH]c(=O)n(Cc3ccc(Cl)cc3)c2n1 (single isomer, unassigned) [Example 70-B, 6-Amino-9-[(4-chlorophenyl)methyl]-2-(ethylsulfonimidoyl)-7H-purin-8-one]",EC50,human TLR7; [4],0.077 µM
same,C0,[1],2780 nM
same,Relative induction of Positive control (10 μM Rifampicin) (%),CYP3A4,−0.42%
"CCCS(=N)(=O)c1nc(N)c2[nH]c(=O)n(Cc3ccccc3)c2n1 (single isomer, unassigned) [Example 4-A, 6-Amino-9-benzyl-2-(propylsulfonimidoyl)-7H-purin-8-one]",Relative induction of Positive control (10 μM Rifampicin) (%),CYP3A4,−0.63%
"CCCS(=N)(=O)c1nc(N)c2[nH]c(=O)n(Cc3ccc(C)cc3)c2n1 (single isomer, unassigned) [Example 29-A, 6-Amino-2-(propylsulfonimidoyl)-9-(p-tolylmethyl)-7H-purin-8-one]",EC50,human TLR7; HEK-Blue-hTLR7 (EC50 (μM)),0.019 µM
same,IC50,hERG channel,> 20 µM
same,IC20,hERG channel,> 10 µM
"CS(=O)(=O)c1nc(N)c2[nH]c(=O)n(Cc3ccccc3)c2n1 [Example S-1, reference compound]",C0,[1],534 nM
"CCCS(=N)(=O)c1nc(N)c2[nH]c(=O)n(Cc3ccc(C)cc3)c2n1 (single isomer, unassigned) [Example 29-B, 6-Amino-2-(propylsulfonimidoyl)-9-(p-tolylmethyl)-7H-purin-8-one]",EC50,human TLR7; HEK-Blue-hTLR7 (EC50 (μM)),0.022 µM
same,IC50,hERG channel,> 20 µM
"CCS(=N)(=O)c1nc(N)c2[nH]c(=O)n(Cc3ccc(Cl)cc3)c2n1 (single isomer, unassigned) [Example 70-A, 6-Amino-9-[(4-chlorophenyl)methyl]-2-(ethylsulfonimidoyl)-7H-purin-8-one]",EC50,human TLR7; [4],0.054 µM
same,EC50,human TLR8,> 1000 µM
same,AUC(0-inf),[1]; [5],1.63 µM·h
same,C0,[1]; [5],3050 nM
same,clearance,[1]; [5],56 mL/min/kg
same,Relative induction of Positive control (10 μM Rifampicin) (%),CYP3A4,0.42%
CCCCOc1nc(N)c2c(n1)N(Cc1cccc(CN3CCCC3)c1)CC(=O)N2 [GS-9620],ISG15 mRNA induction,[2],dose-dependent ISG15 mRNA induction
same,Safety and tolerability,[2],"safe, well tolerated"
same,C0,[3],220 nM
"CCCS(=N)(=O)c1nc(N)c2[nH]c(=O)n(Cc3ccc(F)cc3)c2n1 (stereo not drawn) [Example 24, 6-Amino-9-[(4-fluorophenyl)methyl]-2-(propylsulfonimidoyl)-7H-purin-8-one]",Relative induction of Positive control (10 μM Rifampicin) (%),CYP3A4,−0.72%
"CCS(=N)(=O)c1nc(N)c2[nH]c(=O)n(Cc3ccc(C)cc3)c2n1 (single isomer, unassigned) [Example 71-A, 6-Amino-2-(ethylsulfonimidoyl)-9-(p-tolylmethyl)-7H-purin-8-one]",EC50,human TLR7; [4],0.134 µM
same,AUC(0-inf),[1]; [5],1.18 µM·h
same,C0,[1]; [5],1850 nM
same,clearance,[1]; [5],84.6 mL/min/kg
same,Relative induction of Positive control (10 μM Rifampicin) (%),CYP3A4,−0.10%
same,IC50,hERG channel,> 20 µM
same,IC20,hERG channel,> 10 µM
"CCS(=N)(=O)c1nc(N)c2[nH]c(=O)n(Cc3ccc(C)cc3)c2n1 (single isomer, unassigned) [Example 71-B, 6-Amino-2-(ethylsulfonimidoyl)-9-(p-tolylmethyl)-7H-purin-8-one]",EC50,human TLR7; [4],0.087 µM
